Data taken from publication PMC3495668, “Serotonin-Induced Hypersensitivity via Inhibition of Catechol O-Methyltransferase Activity” (Molecular Pain, 2012).

T1: catechol O-methyltransferase (COMT) (Sus scrofa, UniProt F1RHN3)
T1 construct: Purified COMT protein (derived from porcine liver), biotinylated at surface lysines
T1 sequence (F1RHN3 1-270): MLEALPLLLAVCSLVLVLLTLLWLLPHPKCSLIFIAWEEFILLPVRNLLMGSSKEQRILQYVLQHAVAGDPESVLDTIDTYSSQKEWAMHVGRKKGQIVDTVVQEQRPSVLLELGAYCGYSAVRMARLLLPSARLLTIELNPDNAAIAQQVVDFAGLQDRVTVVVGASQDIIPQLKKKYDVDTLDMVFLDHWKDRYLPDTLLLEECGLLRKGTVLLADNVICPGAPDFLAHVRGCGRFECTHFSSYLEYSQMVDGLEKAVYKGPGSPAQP

B1: catechol O-methyltransferase (COMT) (Sus scrofa) (protein)
chain: T1 sequence (F1RHN3 1-270)
notes: Purified COMT

Columns and labels:
[1] = target: T1, catechol O-methyltransferase (COMT); experiment: SPR (Biacore […]); also radiolabelled SAM activity assay, Ki,app […]; type: binding
[2] = substrate: Oc1ccccc1O; experiment: radiolabelled SAM methylation assay, Michaelis-Menten KM; type: biochemical, Sus scrofa; conditions: S-adenosyl-L-methionine; Mg2+ ([…] MgCl2) catechol substrate site

Row | Molecule | Kd [1] [µM] | Km [2] [µM]
1 | NCCc1c[nH]c2ccc(O)cc12 [serotonin] | ~87 | –
2 | B1 | – | 16
